Where two headings read alike, the source gives them in different places.
How the values were obtained:
Type in all cases: cell-based
[1] = system: haematopoietic & lymphoid tumors (13 cell lines); assay: CellTiter-Glo Viability Assay, haematopoietic & lymphoid tumors; conditions: Homo sapiens
Experimental: (§1) Fifty-one human cancer cell lines (breast cancer (8 cell lines), colorectal cancer (6 cell lines), haematopoietic & lymphoid tumors (13 cell lines), liver cancer (3 cell lines), lung cancer (4 cell lines), ovarian cancer (4 cell lines), pancreatic cancer (8 cell lines), and prostate cancer (5 cell lines)) were tested to determine the effects of representative compounds of Formulas (I)-(XII) on cellular proliferation, as evaluated using the CellTiter-Glo® Viability Assay.
(§2) For the Cell Viability Assays, cells were plated at 300-3,000 cells/well in 384-well plates in their respective media containing 1% Penicillin-Streptomycin and incubated for four days at 37° C. and 5% CO2. Twenty-eight replicates of DMSO-treated cells served as controls and cells treated with compound were performed in duplicate.
(§3) After incubation, 10 μL of CellTiter-Glo® (Promega) was added to each well allowed to incubate for approximately 12 minutes. This reagent results in cell lysis and generation of a luminescent signal proportional to the amount of ATP present. The amount of ATP is directly proportional to the number of metabolically active, viable cells present in culture. The CellTiter-Glo® Assay generates a luminescent signal, produced by the luciferase reaction (Promega.com).
(§4) After incubation, the luminescence signal was read using an EnVision™ Multilabel Plate Reader (Perkin Elmer). Dose-response curves were generated and EC50 concentration values were calculated using Dotmatics' Studies Software (Bishops Stortford, UK).

[2] = system: ovarian cancer (4 cell lines); assay: CellTiter-Glo Viability Assay, ovarian cancer; conditions: Homo sapiens
Experimental: as §1, §2, §3, §4

[3] = system: colorectal cancer (6 cell lines); assay: CellTiter-Glo Viability Assay, colorectal cancer; conditions: Homo sapiens
Experimental: as §1, §2, §3, §4

[4] = system: liver cancer (3 cell lines); assay: CellTiter-Glo Viability Assay, liver cancer; conditions: Homo sapiens
Experimental: as §1, §2, §3, §4

[5] = system: pancreatic cancer (8 cell lines); assay: CellTiter-Glo Viability Assay, pancreatic cancer; conditions: Homo sapiens
Experimental: as §1, §2, §3, §4

MCF7 = assay: CellTiter-Glo Viability Assay, breast cancer; conditions: Homo sapiens, MCF7, 96 h
Experimental: as §1, §2, §3, §4

DU4475 = assay: CellTiter-Glo Viability Assay, breast cancer; conditions: Homo sapiens, DU-4475, 96 h
Experimental: as §1, §2, §3, §4

HCC1599 = assay: CellTiter-Glo Viability Assay, breast cancer; conditions: Homo sapiens, HCC1599, 96 h
Experimental: as §1, §2, §3, §4

MDA-MB-231-Luc = assay: CellTiter-Glo Viability Assay, breast cancer; conditions: Homo sapiens, 96 h
Experimental: as §1, §2, §3, §4

CAMA1 = assay: CellTiter-Glo Viability Assay, breast cancer; conditions: Homo sapiens, CAMA-1, 96 h
Experimental: as §1, §2, §3, §4

BT-549 = assay: CellTiter-Glo Viability Assay, breast cancer; conditions: Homo sapiens, BT-549, 96 h
Experimental: as §1, §2, §3, §4

ZR-75-1 = assay: CellTiter-Glo Viability Assay, breast cancer; conditions: Homo sapiens, ZR-75-1, 96 h
Experimental: as §1, §2, §3, §4

T47D = assay: CellTiter-Glo Viability Assay, breast cancer; conditions: Homo sapiens, 96 h
Experimental: as §1, §2, §3, §4

[6] = system: prostate cancer (5 cell lines); assay: CellTiter-Glo Viability Assay, prostate cancer; conditions: Homo sapiens
Experimental: as §1, §2, §3, §4

[7] = system: lung cancer (4 cell lines); assay: CellTiter-Glo Viability Assay, lung cancer; conditions: Homo sapiens
Experimental: as §1, §2, §3, §4

`CN1CCN(c2cc(C(=O)Nc3cc4cc(-c5cnn(C)c5)ccc4cn3)ccn2)CC1` [Compound 12] was tested, and the EC50 ([1]; DND41, read-out: Haematopoietic & Lymphoid tumors, EC50 (μM) DND-41) was 0.208 µM, the EC50 ([1]; HL-60, read-out: Haematopoietic & Lymphoid tumors, EC50 (μM) HL-60) was 0.518 µM and the EC50 ([1]; JM1, read-out: Haematopoietic & Lymphoid tumors, EC50 (μM) JM1) was 0.095 µM. For the same compound, the EC50 ([1]; JeKo-1, read-out: Haematopoietic & Lymphoid tumors, EC50 (μM) JeKo-1) was 0.081 µM, the EC50 ([1]; Jurkat, read-out: Haematopoietic & Lymphoid tumors, EC50 (μM) JURKAT, Clone E6-1) was 0.412 µM and the EC50 ([1]; Kasumi 1, read-out: Haematopoietic & Lymphoid tumors, EC50 (μM) KASUMI-1) was 0.156 µM. The EC50 ([1]; MOLT-4, read-out: Haematopoietic & Lymphoid tumors, EC50 (μM) MOLT-4) was 0.302 µM, the EC50 ([1]; MV4-11, read-out: Haematopoietic & Lymphoid tumors, EC50 (μM) MV-4-11) was 0.082 µM and the EC50 ([1]; Rec1, read-out: Haematopoietic & Lymphoid tumors, EC50 (μM) REC-1) was 0.075 µM. The EC50 ([1]; SU-DHL-4, read-out: Haematopoietic & Lymphoid tumors, EC50 (μM) SUDHL4) was 0.335 µM, the EC50 ([1]; TF-1, read-out: Haematopoietic & Lymphoid tumors, EC50 (μM) TF-1) was 0.386 µM and the EC50 ([1]; Toledo, read-out: Haematopoietic & Lymphoid tumors, EC50 (μM) TOLEDO) was 0.101 µM. The EC50 ([1]; read-out: Haematopoietic & Lymphoid tumors, EC50 (μM) Loucy) was 0.155 µM, the EC50 ([2]; OV-90, read-out: Ovarian cancer, EC50 (μM) OV-90) was 0.456 µM and the EC50 ([2]; OVCAR-3, read-out: Ovarian cancer, EC50 (μM) OVCAR-3) was 0.113 µM. The EC50 ([2]; PA-1, read-out: Ovarian cancer, EC50 (μM) PA1) was 0.172 µM, the EC50 ([2]; TOV112D, read-out: Ovarian cancer, EC50 (μM) TOV-112D) was 0.152 µM and the EC50 ([3]; DLD-1, read-out: Colorectal cancer, EC50 (μM) DLD-1) was 0.183 µM. It also gave an EC50 ([3]; HCT-116, read-out: Colorectal cancer, EC50 (μM) HCT116) of 0.138 µM, an EC50 ([3]; HT-29, read-out: Colorectal cancer, EC50 (μM) HT29) of 0.291 µM and an EC50 ([3]; SW48, read-out: Colorectal cancer, EC50 (μM) SW48) of 0.09 µM. The EC50 ([3]; SW480, read-out: Colorectal cancer, EC50 (μM) SW480) was 0.159 µM, the EC50 ([3]; SW-620, read-out: Colorectal cancer, EC50 (μM) SW620) was 0.114 µM and the EC50 ([4]; HepG2, read-out: Liver cancer, EC50 HEPG2) was 309 nM. It also gave an EC50 ([4]; PLC-PRF-5, read-out: Liver cancer, EC50 PLC/PRF/5) of 465 nM, an EC50 ([4]; SNU-398, read-out: Liver cancer, EC50 SNU398) of 62 nM and an EC50 ([5]; BXPC-3, read-out: Pancreatic cancer, EC50 BxPC3) of 420 nM. It also gave an EC50 ([5]; CAPAN-1, read-out: Pancreatic cancer, EC50 Capan1) of 343 nM, an EC50 ([5]; Capan-2, read-out: Pancreatic cancer, EC50 Capan2) of 415 nM and an EC50 ([5]; MIA PaCa-2, read-out: Pancreatic cancer, EC50 MIA PaCa-2) of 131 nM. For the same compound, the EC50 ([5]; PANC-1, read-out: Pancreatic cancer, EC50 PANC-1) was 294 nM, the EC50 ([5]; Panc 05.04, read-out: Pancreatic cancer, EC50 PANC 05.04) was 340 nM and the EC50 ([5]; read-out: Pancreatic cancer, EC50 UPAFII) was 153 nM. The EC50 (MCF7) was 600 nM, the EC50 (DU4475) was 182 nM and the EC50 (HCC1599) was 103 nM. The EC50 (MDA-MB-231-Luc) was 304 nM, the EC50 (CAMA1) was 347 nM and the EC50 (BT-549) was 231 nM. It also gave an EC50 (ZR-75-1) of 361 nM, an EC50 (T47D) of 427 nM and an EC50 ([6]; 22Rv1, read-out: Prostate cancer EC50 22Rv1) of 191 nM. It also gave an EC50 ([6]; DU-145, read-out: Prostate cancer EC50 Du-145) of 377 nM, an EC50 ([6]; LNCaP-Clone-FGC, read-out: Prostate cancer EC50 LNCap clone FGC) of 329 nM and an EC50 ([6]; PC-3, read-out: Prostate cancer EC50 PC3) of 237 nM. It also gave an EC50 ([6]; VCaP, read-out: Prostate cancer EC50 VCaP (Sigma)) of 462 nM, an EC50 ([7]; A-427, read-out: Lung cancer, EC50 (μM) A427) of 0.277 µM and an EC50 ([7]; HCC78, read-out: Lung cancer, EC50 (μM) HCC-78) of 0.326 µM. For the same compound, the EC50 ([7]; NCI-H460, read-out: Lung cancer, EC50 (μM) NCI-H460) was 0.261 µM and the EC50 ([7]; NCI-H522, read-out: Lung cancer, EC50 (μM) NCI-H522) was 0.133 µM.

Source: patent publication US20220062240A1, “METHODS OF TREATING CANCER USING A CLK INHIBITOR” (BioSplice Therapeutics, Inc., priority 2018, published 2022)
